Columns and labels:
Type in all cases: in vivo
[1] = tested on: barnyardgrass (Echinochloa crus-galli); test: Test A pre-/postemergence greenhouse test
Text: (§1) Seeds of plant species selected from barnyardgrass (Echinochloa crus-galli), kochia (Kochia scoparia), ragweed (common ragweed, Ambrosia elatior), ryegrass, Italian (Lolium multiflorum), foxtail, giant (Setaria faberii), foxtail, green (Setaria viridis) and pigweed (Amaranthus retroflexus) were planted into a blend of loam soil and sand and treated preemergence with a directed soil spray using test chemicals formulated in a non-phytotoxic solvent mixture which included a surfactant.
(§2) At the same time, plants selected from these weed species and also wheat (Triticum aestivum), corn (Zea mays), blackgrass (Alopecurus myosuroides) and galium (catchweed bedstraw, Galium aparine) were planted in pots containing the same blend of loam soil and sand and treated with postemergence applications of test chemicals formulated in the same manner. Plants ranged in height from 2 to 10 cm and were in the one- to two-leaf stage for the postemergence treatment. Treated plants and untreated controls were maintained in a greenhouse for approximately 10 d, after which time all treated plants were compared to untreated controls and visually evaluated for injury. Plant response ratings, summarized in Table A, are based on a 0 to 100 scale where 0 is no effect and 100 is complete control. A dash (-) response means no test result.

kochia (Kochia scoparia) [2] = test: Test A pre-/postemergence greenhouse test
Text: as §1, §2

[3] = tested on: pigweed (Amaranthus retroflexus); test: Test A pre-/postemergence greenhouse test
Text: as §1, §2

[4] = tested on: ragweed (common ragweed, Ambrosia elatior); test: Test A pre-/postemergence greenhouse test
Text: as §1, §2

[5] = tested on: ryegrass, Italian (Lolium multiflorum); test: Test A pre-/postemergence greenhouse test
Text: as §1, §2

[6] = tested on: barley, spring (Hordeum vulgare); test: Test D pre-/postemergence controlled growth environment test
Text: (§3) Seeds of plant species selected from blackgrass (Alopecurus myosuroides), galium (catchweed bedstraw, Galium aparine), kochia (Kochia scoparia), oilseed rape (Brassica napus), barley, spring (Hordeum vulgare), wheat, spring (Triticum aestivum), oat, wild (Avena fatua), barley, winter (Hordeum vulgare) and wheat, winter (Triticum aestivum) were planted into a silt loam soil and treated preemergence with test chemicals formulated in a non-phytotoxic solvent mixture which included a surfactant.
(§4) At the same time, plants selected from these crop and weed species and also bluegrass (annual bluegrass, Poa annua), canarygrass (littleseed canarygrass, Phalaris minor), chickweed (common chickweed, Stellaria media), bromegrass, downy (downy bromegrass, Bromus tectorum), field poppy (Papaver rhoeas), field violet (Viola arvensis), foxtail, green (Setaria viridis), deadnettle (henbit deadnettle, Lamium amplexicaule), ryegrass, Italian (Lolium multiflorum), lambsquarters (Chenopodium album), pigweed (Amaranthus retroflexus), chamomile (scentless chamomile, Matricaria inodora), Russian thistle (Salsola kali), speedwell (bird's-eye speedwell, Veronica persica), buckwheat, wild (Polygonum convolvulus), mustard, wild (Sinapis arvensis), radish, wild (Raphanus raphanistrum), windgrass (Apera spica-venti), geranium, cutleaf (Geranium dissectum) and Canada thistle (Cirsium arvense) were planted in pots containing Redi-Earth® planting medium (Scotts Company, 14111 Scottslawn Road, Marysville, Ohio 43041) comprising spaghnum peat moss, vermiculite, wetting agent and starter nutrients and treated with postemergence applications of the test chemicals formulated in the same manner. Plants ranged in height from 2 to 18 cm (1- to 4-leaf stage). Treated plants and controls were maintained in a controlled growth environment for 14 to 21 d after which time all species were compared to controls and visually evaluated. Plant response ratings, summarized in Table D, are based on a scale of 0 to 100 where 0 is no effect and 100 is complete control. A dash (-) response means no test result.

[7] = tested on: barley, winter (Hordeum vulgare); test: as above
Text: as §3, §4

[8] = tested on: blackgrass (Alopecurus myosuroides); test: as above
Text: as §3, §4

[9] = tested on: galium (catchweed bedstraw, Galium aparine); test: as above
Text: as §3, §4

kochia (Kochia scoparia) [10] = test: as above
Text: as §3, §4

oat, wild (Avena fatua) = test: as above
Text: as §3, §4

[11] = tested on: oilseed rape (Brassica napus); test: as above
Text: as §3, §4

[12] = tested on: wheat, spring (Triticum aestivum); test: as above
Text: as §3, §4

[13] = tested on: wheat, winter (Triticum aestivum); test: as above
Text: as §3, §4

## Cc1ccc2ccc(C)c(-c3c(O)c(Cl)nn(C)c3=O)c2c1 [Cpd. No. 20, 6-chloro-4-(2,7-dimethyl-1-naphthalenyl)-5-hydroxy-2-methyl-3(2H)-pyridazinone]
[1]; Postemergence, 31 g ai/ha
  Plant response rating (0 to 100 scale): 80
[1]; Postemergence, 125 g ai/ha
  Plant response rating (0 to 100 scale): 100
[1]; Preemergence, 31 g ai/ha
  Plant response rating (0 to 100 scale): 70
[1]; Preemergence, 125 g ai/ha
  Plant response rating (0 to 100 scale): 100
Kochia (Kochia scoparia) [2]; Postemergence, 31 g ai/ha
  Plant response rating (0 to 100 scale): 70
Kochia (Kochia scoparia) [2]; Postemergence, 125 g ai/ha
  Plant response rating (0 to 100 scale): 90
Kochia (Kochia scoparia) [2]; Preemergence, 31 g ai/ha
  Plant response rating (0 to 100 scale): 30
Kochia (Kochia scoparia) [2]; Preemergence, 125 g ai/ha
  Plant response rating (0 to 100 scale): 90
[3]; Postemergence, 31 g ai/ha
  Plant response rating (0 to 100 scale): 90
[3]; Postemergence, 125 g ai/ha
  Plant response rating (0 to 100 scale): 100
[3]; Preemergence, 31 g ai/ha
  Plant response rating (0 to 100 scale): 100
[3]; Preemergence, 125 g ai/ha
  Plant response rating (0 to 100 scale): 100
[4]; Postemergence, 31 g ai/ha
  Plant response rating (0 to 100 scale): 90
[4]; Postemergence, 125 g ai/ha
  Plant response rating (0 to 100 scale): 90
[4]; Preemergence, 31 g ai/ha
  Plant response rating (0 to 100 scale): 20
[4]; Preemergence, 125 g ai/ha
  Plant response rating (0 to 100 scale): 90
[5]; Postemergence, 31 g ai/ha
  Plant response rating (0 to 100 scale): 90
[5]; Postemergence, 125 g ai/ha
  Plant response rating (0 to 100 scale): 100
[5]; Preemergence, 31 g ai/ha
  Plant response rating (0 to 100 scale): 90
[5]; Preemergence, 125 g ai/ha
  Plant response rating (0 to 100 scale): 100
[6]; Postemergence, 16 g ai/ha
  Plant response rating, Barley, Spring: 0
[6]; Postemergence, 31 g ai/ha
  Plant response rating, Barley, Spring: 5
[6]; Postemergence, 62 g ai/ha
  Plant response rating, Barley, Spring: 10
[6]; Postemergence, 125 g ai/ha
  Plant response rating, Barley, Spring: 20
[6]; Preemergence, 16 g ai/ha
  Plant response rating, Barley, Spring: 0
[6]; Preemergence, 31 g ai/ha
  Plant response rating, Barley, Spring: 0
[6]; Preemergence, 62 g ai/ha
  Plant response rating, Barley, Spring: 2
[6]; Preemergence, 125 g ai/ha
  Plant response rating, Barley, Spring: 10
[7]; Postemergence, 16 g ai/ha
  Plant response rating, Barley, Winter: 0
[7]; Postemergence, 31 g ai/ha
  Plant response rating, Barley, Winter: 5
[7]; Postemergence, 62 g ai/ha
  Plant response rating, Barley, Winter: 15
[7]; Postemergence, 125 g ai/ha
  Plant response rating, Barley, Winter: 15
[7]; Preemergence, 16 g ai/ha
  Plant response rating, Barley, Winter: 0
[7]; Preemergence, 31 g ai/ha
  Plant response rating, Barley, Winter: 0
[7]; Preemergence, 62 g ai/ha
  Plant response rating, Barley, Winter: 0
[7]; Preemergence, 125 g ai/ha
  Plant response rating, Barley, Winter: 0
[8]; Postemergence, 16 g ai/ha
  Plant response rating, Blackgrass: 15
[8]; Postemergence, 31 g ai/ha
  Plant response rating, Blackgrass: 25
[8]; Postemergence, 62 g ai/ha
  Plant response rating, Blackgrass: 50
[8]; Postemergence, 125 g ai/ha
  Plant response rating, Blackgrass: 60
[8]; Preemergence, 16 g ai/ha
  Plant response rating, Blackgrass: 0
[8]; Preemergence, 31 g ai/ha
  Plant response rating, Blackgrass: 8
[8]; Preemergence, 62 g ai/ha
  Plant response rating, Blackgrass: 20
[8]; Preemergence, 125 g ai/ha
  Plant response rating, Blackgrass: 58
[9]; Postemergence, 16 g ai/ha
  Plant response rating, Galium: 80
[9]; Postemergence, 31 g ai/ha
  Plant response rating, Galium: 90
[9]; Postemergence, 62 g ai/ha
  Plant response rating, Galium: 90
[9]; Postemergence, 125 g ai/ha
  Plant response rating, Galium: 99
[9]; Preemergence, 16 g ai/ha
  Plant response rating, Galium: 78
[9]; Preemergence, 31 g ai/ha
  Plant response rating, Galium: 85
[9]; Preemergence, 62 g ai/ha
  Plant response rating, Galium: 97
[9]; Preemergence, 125 g ai/ha
  Plant response rating, Galium: 100
Kochia (Kochia scoparia) [10]; Postemergence, 16 g ai/ha
  Plant response rating, Kochia: 70
Kochia (Kochia scoparia) [10]; Postemergence, 31 g ai/ha
  Plant response rating, Kochia: 70
Kochia (Kochia scoparia) [10]; Postemergence, 62 g ai/ha
  Plant response rating, Kochia: 70
Kochia (Kochia scoparia) [10]; Postemergence, 125 g ai/ha
  Plant response rating, Kochia: 80
Kochia (Kochia scoparia) [10]; Preemergence, 16 g ai/ha
  Plant response rating, Kochia: 7
Kochia (Kochia scoparia) [10]; Preemergence, 31 g ai/ha
  Plant response rating, Kochia: 25
Kochia (Kochia scoparia) [10]; Preemergence, 62 g ai/ha
  Plant response rating, Kochia: 35
Kochia (Kochia scoparia) [10]; Preemergence, 125 g ai/ha
  Plant response rating, Kochia: 80
oat, wild (Avena fatua); Postemergence, 16 g ai/ha
  Plant response rating, Oat, Wild: 25
oat, wild (Avena fatua); Postemergence, 31 g ai/ha
  Plant response rating, Oat, Wild: 65
oat, wild (Avena fatua); Postemergence, 62 g ai/ha
  Plant response rating, Oat, Wild: 80
oat, wild (Avena fatua); Postemergence, 125 g ai/ha
  Plant response rating, Oat, Wild: 90
oat, wild (Avena fatua); Preemergence, 16 g ai/ha
  Plant response rating, Oat, Wild: 22
oat, wild (Avena fatua); Preemergence, 31 g ai/ha
  Plant response rating, Oat, Wild: 33
oat, wild (Avena fatua); Preemergence, 62 g ai/ha
  Plant response rating, Oat, Wild: 73
oat, wild (Avena fatua); Preemergence, 125 g ai/ha
  Plant response rating, Oat, Wild: 83
[11]; Postemergence, 16 g ai/ha
  Plant response rating, Oilseed Rape: 15
[11]; Postemergence, 31 g ai/ha
  Plant response rating, Oilseed Rape: 15
[11]; Postemergence, 62 g ai/ha
  Plant response rating, Oilseed Rape: 20
[11]; Postemergence, 125 g ai/ha
  Plant response rating, Oilseed Rape: 25
[11]; Preemergence, 16 g ai/ha
  Plant response rating, Oilseed Rape: 0
[11]; Preemergence, 31 g ai/ha
  Plant response rating, Oilseed Rape: 0
[11]; Preemergence, 62 g ai/ha
  Plant response rating, Oilseed Rape: 0
[11]; Preemergence, 125 g ai/ha
  Plant response rating, Oilseed Rape: 0
[12]; Postemergence, 16 g ai/ha
  Plant response rating, Wheat, Spring: 15
[12]; Postemergence, 31 g ai/ha
  Plant response rating, Wheat, Spring: 25
[12]; Postemergence, 62 g ai/ha
  Plant response rating, Wheat, Spring: 35
[12]; Postemergence, 125 g ai/ha
  Plant response rating, Wheat, Spring: 55
[12]; Preemergence, 16 g ai/ha
  Plant response rating, Wheat, Spring: 0
[12]; Preemergence, 31 g ai/ha
  Plant response rating, Wheat, Spring: 12
[12]; Preemergence, 62 g ai/ha
  Plant response rating, Wheat, Spring: 28
[12]; Preemergence, 125 g ai/ha
  Plant response rating, Wheat, Spring: 62
[13]; Postemergence, 16 g ai/ha
  Plant response rating, Wheat, Winter: 10
[13]; Postemergence, 31 g ai/ha
  Plant response rating, Wheat, Winter: 15
[13]; Postemergence, 62 g ai/ha
  Plant response rating, Wheat, Winter: 20
[13]; Postemergence, 125 g ai/ha
  Plant response rating, Wheat, Winter: 30
[13]; Preemergence, 16 g ai/ha
  Plant response rating, Wheat, Winter: 0
[13]; Preemergence, 31 g ai/ha
  Plant response rating, Wheat, Winter: 0
[13]; Preemergence, 62 g ai/ha
  Plant response rating, Wheat, Winter: 5
[13]; Preemergence, 125 g ai/ha
  Plant response rating, Wheat, Winter: 17
